From patent publication US20080255192A1, “Methods and Compositions for Selectin Inhibition” (Wyeth, priority 2007, published 2008)

biological target: T1, P-selectin/PSGL-1 interaction (Homo sapiens, UniProt P16109); test: Biacore P-Selectin/PSGL-1 Inhibition Assay (surface plasmon resonance); format: binding; details: 250 uM test compound, 500 nM P.LE, immobilized PSGL-1 19ek, 10% DMSO, pH 7.4
T1 construct: comprised of the lectin and epidermal growth factor-like (EGF) domains expressed in CHO cells; made in house; host or cells: CHO cells (P-LE)
T1 sequence (P16109 42-198): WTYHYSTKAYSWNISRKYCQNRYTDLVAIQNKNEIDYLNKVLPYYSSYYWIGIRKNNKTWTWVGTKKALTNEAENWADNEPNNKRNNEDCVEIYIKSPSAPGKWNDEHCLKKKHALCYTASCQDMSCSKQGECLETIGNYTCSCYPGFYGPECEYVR
Protocol: Surface plasmon resonance assays were performed on a Biacore 3000 instrument (Biacore Inc. Piscataway, N.J.) at 25° C. at a flow rate of 30 μL/minute and each assay consisted of a 60-second equilibration, a 60-μL sample injection (kinject), and a 300-second dissociation.
A purified, monomeric, truncated form of human PSGL-1, “19ek”, that contained all the necessary P-selectin binding determinants (see Goetz, et al., J. Cell Biol., 1997, 137: 509-519; and Sako, et al., Cell, 1995, 83: 323-331) was biotinylated via amine chemistry (Sulfo-NHS-LC-Biotin, Peirce) at a unique C-terminal lysine residue (see Somers, et al., Cell, 2000, 103: 467-479) and immobilized on a Biacore SA sensor chip (Biacore Inc.), using an HBS-EP buffer (Biacore Inc.), and the target 600-700 RU. The coated chip was re-equilibrated with an HBS-P buffer (Biacore Inc.) to which 1 mM CaCl2 and 1 mM MgCl2 (both from Fisher) were added to ensure sufficient calcium for the calcium-dependent interaction between the receptor and the ligand.
Test compounds were incubated for 1 hour in a 1.1× Biacore assay buffer. Each solution was centrifuged through a 0.2 µm filter, using a 96-well plate format (Millipore). Glycyrrhizin tri-sodium salt (TCI) was prepared as a positive control in parallel with the test compounds, in the same manner described above.
A soluble recombinant truncated form of human P-selectin, P-LE, comprised of the lectin and epidermal growth factor-like (EGF) domains expressed in CHO cells (see Somers, et al., Cell, 2000, 103: 467-479) was added to each filtered test compound solution. Final concentrations of reagents were 500 nM P.LE, 250 or 500 μM test compound (depending on structure) or 1 mM glycyrrhizin, 10% DMSO, and 1× Biacore buffer ([…], 150 mM NaCl, 1 mM CaCl2, and 1 mM MgCl2 (all reagents from Fisher)), with a pH of 7.4. Compounds active at 250 μM were titrated to further define activity. Test samples were supplied to the Biacore instrument in a 96-well plate.
The Biacore raw data file was exported as a text file to an Excel spreadsheet, where the buffer blanks bracketing the samples were averaged for each Biacore instrument flow cell (Fc), and subtracted from the averaged uninhibited P.LE samples and from all the other samples. The reference signal from Fcl (uncoated) was then subtracted from its corresponding active (coated) signal for each injection, a process known as double referencing (see Myszka, J. Mol. Recognit., 1999, 12(5): 279-284). The percent inhibition of binding was calculated by dividing the reference-subtracted inhibited signal by the reference-subtracted uninhibited signal, subtracting this value from 1, and multiplying the resulting value by 100. The replicate percent inhibition values were averaged and expressed as the mean ±standard deviation. The inter-experiment standard deviation of calculated percent inhibitions in the Biacore assay was ±5.

Row | SMILES | inhibition at 250 µM [%]
1 | CCC(c1ccccc1)c1nc2c(C(C)C)cccc2c(C(=O)O)c1O (stereo not shown) [Compound 127, 3-Hydroxy-8-isopropyl-2-(1-phenylpropyl)quinoline-4-carboxylic acid] | 65
2 | Cc1ccc2c(C(=O)O)c(O)c(CC(C)c3ccccc3)nc2c1C (stereo not shown) [Compound 137, 3-Hydroxy-7,8-dimethyl-2-(2-phenylpropyl)quinoline-4-carboxylic acid] | 31
3 | Cc1cccc2c(C(=O)O)c(O)c(C3(c4ccc(Cl)cc4)CC3)nc12 [Compound 11, 2-(1-(4-chlorophenyl)cyclopropyl)-3-hydroxy-8-methylquinoline-4-carboxylic acid] | 43
4 | CC(C)c1ccc2nc(C3(c4ccc(Cl)cc4)CC3)c(O)c(C(=O)O)c2c1 [Compound 25, 2-(1-(4-chlorophenyl)cyclopropyl)-3-hydroxy-6-isopropylquinoline-4-carboxylic acid] | 14
5 | Cc1ccc(C2(c3nc4c(C)cccc4c(C(=O)O)c3O)CC2)cc1 [Compound 83, 8-methyl-2-(1-p-tolylcyclopropyl)-3-hydroxyquinoline-4-carboxylic acid] | 12
6 | O=C(O)c1c(O)c(C2(c3ccc(Cl)cc3)CC2)nc2c(-c3ccsc3)cccc12 [Compound 37, 2-(1-(4-chlorophenyl)cyclopropyl)-3-hydroxy-8-(thiophen-3-yl)quinoline-4-carboxylic acid] | 78
7 | CC(C)C(c1ccccc1)c1nc2c(C(F)(F)F)cccc2c(C(=O)O)c1O (stereo not shown) [Compound 129, 3-Hydroxy-2-(2-methyl-1-phenylpropyl)-8-(trifluoromethyl)quinoline-4-carboxylic acid] | 60
8 | O=C(O)c1c(O)c(C2(c3ccc(F)cc3)CC2)nc2ccc(Cl)cc12 [Compound 67, 6-chloro-2-(1-(4-fluorophenyl)cyclopropyl)-3-hydroxyquinoline-4-carboxylic acid] | ≤ 10
9 | CCc1ccc2nc(C3(c4ccccc4)CC3)c(O)c(C(=O)O)c2c1 [Compound 27, 6-ethyl-3-hydroxy-2-(1-phenylcyclopropyl)quinoline-4-carboxylic acid] | ≤ 10
10 | CC(C)(c1ccc(Cl)cc1)c1nc2c(C(O)(C(F)(F)F)C(F)(F)F)cccc2c(C(=O)O)c1O [Compound 122, 2-(2-(4-chlorophenyl)propan-2-yl)-8-(1,1,1,3,3,3-hexafluoro-2-hydroxypropan-2-yl)-3-hydroxyquinoline-4-carboxylic acid] | ≤ 10
11 | CCc1cccc2c(C(=O)O)c(O)c(C3(c4ccccc4)CC3)nc12 [Compound 14, 8-ethyl-3-hydroxy-2-(1-phenylcyclopropyl)quinoline-4-carboxylic acid] | 23
12 | O=C(O)c1c(O)c(C2(c3ccc(F)cc3)CC2)nc2cc(Br)ccc12 [Compound 74, 7-bromo-2-(1-(4-fluorophenyl)cyclopropyl)-3-hydroxyquinoline-4-carboxylic acid] | 10
13 | O=C(O)c1c(O)c(C2(c3ccccc3)CC2)nc2c(-c3ccccc3)cccc12 [Compound 45, 3-hydroxy-8-phenyl-2-(1-Phenylcyclopropyl)quinoline-4-carboxylic acid] | 37
14 | O=C(O)c1c(O)c(C2(c3ccc(Cl)cc3)CC2)nc2c(C(O)(C(F)(F)F)C(F)(F)F)cccc12 [Compound 41, 2-(1-(4-chlorophenyl)cyclopropyl)-8-(1,1,1,3,3,3-hexafluoro-2-hydroxypropan-2-yl)-3-hydroxyquinoline-4-carboxylic acid] | ≤ 10
15 | O=C(O)c1c(O)c(C2(c3ccc(Cl)cc3)CC2)nc2c3c(ccc12)CCCC3 [Compound 36, 2-(1-(4-chlorophenyl)cyclopropyl)-3-hydroxy-7,8,9,10-tetrahydrobenzo[h]quinoline-4-carboxylic acid] | 67
16 | O=C(O)c1c(O)c(C2(c3ccc(Cl)cc3)CC2)nc2c(C(F)(F)F)cc(Cl)cc12 [Compound 95, 6-chloro-2-(1-(4-chlorophenyl)cyclopropyl)-3-hydroxy-8-(trifluoromethyl)quinoline-4-carboxylic acid] | ≤ 10

Row | SMILES | inhibition at 250 µM [%]
17 | O=C(O)c1c(O)c(C2(c3ccc(Cl)cc3)CCC2)nc2c(C(F)(F)F)cccc12 [Compound 58, 2-(1-(4-chlorophenyl)cyclobutyl)-3-hydroxy-8-(trifluoromethyl)quinoline-4-carboxylic acid] | ≤ 10
18 | O=C(O)c1c(O)c(C2(c3ccc(Cl)cc3)CC2)nc2ccc(Br)cc12 [Compound 18, 6-bromo-2-(1-(4-chlorophenyl)cyclopropyl)-3-hydroxyquinoline-4-carboxylic acid] | 28
19 | O=C(O)c1c(O)c(C2(c3ccccc3)CC2)nc2c(C(F)(F)F)cc(C(F)(F)F)cc12 [Compound 106] | 41
20 | Cc1cc(C)c2nc(C3(c4ccc(F)cc4)CC3)c(O)c(C(=O)O)c2c1 [Compound 69, 2-(1-(4-fluorophenyl)cyclopropyl)-3-hydroxy-6,8-dimethylquinoline-4-carboxylic acid] | 11
21 | Cc1ccc2c(C(=O)O)c(O)c(C(C)(C)c3ccc(Cl)cc3)nc2c1C [Compound 121, 2-(2-(4-Chlorophenyl)propan-2-yl)-3-hydroxy-7,8-dimethylquinoline-4-carboxylic acid] | 56
22 | O=C(O)c1c(O)c(C2(c3ccccc3)CC2)nc2c(C(F)(F)F)cc(Br)cc12 [Compound 107, 6-bromo-3-hydroxy-2-(1-phenylcyclopropyl)-8-(trifluoromethyl)quinoline-4-carboxylic acid] | 41
23 | CCC(C)c1cccc2c(C(=O)O)c(O)c(C3(c4ccc(Cl)cc4)CC3)nc12 (stereo not shown) [Compound 3, 8-sec-butyl-2-(1-(4-chlorophenyl)cyclopropyl)-3-hydroxyquinoline-4-carboxylic acid] | 18
24 | CC(Cc1nc2c(C(F)(F)F)cccc2c(C(=O)O)c1O)c1ccccc1 (stereo not shown) [Compound 135, 3-Hydroxy-2-(2-phenylpropyl)-8-(trifluoromethyl)quinoline-4-carboxylic acid] | 46
25 | Cc1ccc2c(C(=O)O)c(O)c(C(c3ccccc3)C(C)C)nc2c1C (stereo not shown) [Compound 131, 3-Hydroxy-7,8-dimethyl-2-(2-methyl-1-phenylpropyl)quinoline-4-carboxylic acid] | 90
26 | Cc1cc(C)c2nc(C3(c4ccc(Cl)cc4)CC3)c(O)c(C(=O)O)c2c1 [Compound 10, 2-(1-(4-chlorophenyl)cyclopropyl)-3-hydroxy-6,8-dimethylquinoline-4-carboxylic acid] | 47
27 | O=C(O)c1c(O)c(C2(c3ccccc3)CC2)nc2c(C(O)(C(F)(F)F)C(F)(F)F)cccc12 [Compound 49, 8-(1,1,1,3,3,3-hexafluoro-2-hydroxypropan-2-yl)-3-hydroxy-2-(1-phenylcyclopropyl)quinoline-4-carboxylic acid] | 58
28 | O=C(O)c1c(O)c(C2(c3cccc(Cl)c3)CC2)nc2c(C(F)(F)F)cccc12 [Compound 54, 2-(1-(3-chlorophenyl)cyclopropyl)-3-hydroxy-8-(trifluoromethyl)quinoline-4-carboxylic acid] | 66
29 | Cc1ccc2c(C(=O)O)c(O)c(C3(c4ccc(F)cc4)CC3)nc2c1C [Compound 81, 2-(1-(4-fluorophenyl)cyclopropyl)-3-hydroxy-7,8-dimethylquinoline-4-carboxylic acid] | 23
30 | O=C(O)c1c(O)c(C2(c3ccc(Cl)cc3)CC2)nc2c(OC(F)(F)F)cccc12 [Compound 1, 2-(1-(4-chlorophenyl)cyclopropyl)-3-hydroxy-8-(trifluoromethoxy)quinoline-4-carboxylic acid] | 37
31 | O=C(O)c1c(O)c(C2(c3ccc(F)cc3)CC2)nc2c(C(F)(F)F)cccc12 [Compound 61, 2-(1-(4-fluorophenyl)cyclopropyl)-3-hydroxy-8-(trifluoromethyl)quinoline-4-carboxylic acid] | 56
